Measured values taken from US11925612B2, “Bactericidal and virucidal pharmaceutical composition” (Quimica Luar SRL, priority 2015, dated 2024).
Like-named read-outs stand apart in the source and are kept apart here.

What was measured:
[1] = test system: P. aeruginosa; experiment: Bactericidal test: CFU count after incubation in PBS buffer; type: cell-based, Pseudomonas aeruginosa; conditions: for Colony count (UFC/mL ± 10): 4-hour contact at 37° C., Example 8; for Colony count (UFC/mL ± 10) / P. aeruginosa count (UFC/mL ± 10) As a function of treatment time: control 2,000,000; for Colony count (UFC/mL ± 10) Pseudomonas: Example 9; for P. aeruginosa count (UFC/mL ± 10) As a function of treatment time: 37° C., Example 6; for concentration at which the number of CFU/mL decreases to 1000: FIG. 11, Example 12
[2] = test system: Bacillus subtilis (Gram+); experiment: as above; type: cell-based; conditions: 4-hour contact at 37° C., control 500,000, Example 8
[3] = test system: Burkhordelia cepacia; type: cell-based; conditions: control 1,300,000; for Colony count (UFC/mL ± 10) Burkhordelia: 4 hours at 37° C., Example 9; for Colony count (UFC/mL ± 10): 4-hour contact at 37° C., Example 8
Experimental: In this case, tests were run on a non-nutritive liquid carrier (buffer solution) wherein the antimicrobial agent is mixed with quantified inocula of pure bacterial cultures. After different incubation times, the material is seeded on agar plates to perform quantification assays on the number of bacterias surviving the treatment.
When the time for each assay finished, aliquots of 100 uL and decimal dilutions of each tube which were seeded on petri dishes for the direct count of colony forming units (CFU) in Mueller Hinton agar (MHA), using pour-plating or spread-plating standard methods.
During testing, the medium was stored in thermostatic bath between 45-50° C. because the seeding technique requires imbibing and integrating bacteria in the medium.

[4] = test system: Escherichia coli; experiment: Bactericidal test: CFU count after incubation in PBS buffer; type: cell-based; conditions: 4-hour contact at 37° C., control 1,000,000, Example 8
[5] = test system: Pseudomonas fluorescens; experiment: as above; type: cell-based; conditions: 4-hour contact at 37° C., control 100,000, Example 8
[6] = test system: artificial biofilm of P. aeruginosa; experiment: Antimicrobial effect on artificial biofilm (2% alginate solution); type: cell-based, Pseudomonas aeruginosa; conditions: Biofilm (2% alginate) + ionic strength (1 M NaCl), 4 hours at 37° C., control 2,000,000, Example 21
Experimental: Work consisted of incubating bacterial populations of a known load in terms of CFU/mL with the compounds mentioned in different molar concentrations. In vitro test batteries were organized at different doses or concentrations and in 1.5 mL Eppendorf tubes without the addition of culture medium. To this purpose, a PBS 100 mM phosphate buffer was used to maintain physiological conditions throughout the period of each test at 37° C. […] Each plate was added with 5 uL of a solution of 2,3,5-metabolic dye triphenyltetrazolium of chloride (TTC) 1% to enhance the contrast of colonies. Plates were incubated in inverted position, in a culture stove for 24-48 hours at 37° C. and subsequently the direct count was done, adjusted by dilution factors and seeding to report results in terms of CFU/mL. […] Treatments lasted 4 hours at 37° C.

[7] = test system: Enterobacter aerogenes; experiment: Bactericidal test: CFU count after incubation in PBS buffer; type: cell-based; conditions: 4-hour contact at 37° C., control 1,000,000, Example 8
[8] = test system: Staphylococcus aureus (Gram+); experiment: as above; type: cell-based; conditions: control 1,000,000; for Colony count (UFC/mL ± 10) Staphylococcus: 4 hours at 37° C., Example 9; for Colony count (UFC/mL ± 10) S. aureus: 4-hour at 37° C., Example 15; for Colony count (UFC/mL ± 10): 4-hour contact at 37° C., Example 8
[9] = test system: Enterococcus faecalis (Gram+); experiment: as above; type: cell-based; conditions: 4-hour contact at 37° C., control 100,000, Example 8

CC(C)Cc1ccc(C(C)C(=O)O)cc1.[Na] (stereo not shown) [IBU-Na, SODIUM IBUPROFEN]
Colony count (UFC/mL ± 10) P. aeruginosa ([1]; IBU-Na 50 mM + ClNa (1M), 4-hour at 37° C., control 3,000,000, Example 15): 10 UFC/mL | Colony count (UFC/mL ± 10) ([1]; IBU-Na 50 mM): 100 UFC/mL | Colony count (UFC/mL ± 10) Pseudomonas ([1]; IBU-Na 50 mM, 4 hours at 37° C., control 1,700,000): 100 UFC/mL | P. aeruginosa count (UFC/mL ± 10) As a function of treatment time ([1]; IBU-Na 50 mM, 4 hours): 30 UFC/mL | P. aeruginosa (UFC/mL ± 10) ([1]; IBU-Na 50 mM, Without ionic strength, 4 hours at 37° C., control 1,700,000, Example 12): 100 UFC/mL | P. aeruginosa (UFC/mL ± 10) ([1]; IBU-Na 50 mM, pH 7.8, 4 h at 37°, control 200,000, Example 7): 600 UFC/mL | Colony count (UFC/mL ± 10) ([1]; IBU-Na 100 mM): 10 UFC/mL | P. aeruginosa count (UFC/mL ± 10) As a function of treatment time ([1]; IBU-Na 100 mM, 1 hour): 2,000 UFC/mL | Colony count (UFC/mL ± 10) Pseudomonas ([1]; IBU-Na 100 mM, 4 hours at 37° C., control 1,700,000): 10 UFC/mL | concentration at which the number of CFU/mL decreases to 1000 ([1]; with ionic strength of NaCl 1 M, 4 hours at 37° C.): about 5 mM | concentration at which the number of CFU/mL decreases to 1000 ([1]; without ionic strength, 4 hours at 37° C.): 25 mM | Colony count (UFC/mL ± 10) ([2]; IBU-Na 50 mM): 250 UFC/mL | Colony count (UFC/mL ± 10) ([2]; IBU-Na 100 mM): 10 UFC/mL | Colony count (UFC/mL ± 10) Burkhordelia ([3]; IBU-Na 5 mM): 1,300,000 UFC/mL | Colony count (UFC/mL ± 10) Burkhordelia ([3]; IBU-Na 10 mM): 1,300,000 UFC/mL | Colony count (UFC/mL ± 10) Burkhordelia ([3]; IBU-Na 25 mM): 40,000 UFC/mL | Colony count (UFC/mL ± 10) ([3]; IBU-Na 50 mM): 680 UFC/mL | Colony count (UFC/mL ± 10) Burkhordelia ([3]; IBU-Na 50 mM): 700 UFC/mL | Colony count (UFC/mL ± 10) ([3]; IBU-Na 100 mM): 10 UFC/mL | Colony count (UFC/mL ± 10) Burkhordelia ([3]; IBU-Na 100 mM): 10 UFC/mL | Colony count (UFC/mL ± 10) ([4]; IBU-Na 50 mM): 500 UFC/mL | Colony count (UFC/mL ± 10) ([4]; IBU-Na 100 mM): 10 UFC/mL | Colony count (UFC/mL ± 10) ([5]; IBU-Na 50 mM): 150 UFC/mL | Colony count (UFC/mL ± 10) ([5]; IBU-Na 100 mM): 10 UFC/mL | P. aeruginosa (UFC/mL ± 10) ([6]; 10 mM): 25,000 UFC/mL | P. aeruginosa (UFC/mL ± 10) ([6]; 25 mM): 200 UFC/mL | Colony count (UFC/mL ± 10) ([7]; IBU-Na 50 mM): 450 UFC/mL | Colony count (UFC/mL ± 10) ([7]; IBU-Na 100 mM): 10 UFC/mL | Colony count (UFC/mL ± 10) Staphylococcus ([8]; IBU-Na 5 mM): 1,000,000 UFC/mL | Colony count (UFC/mL ± 10) Staphylococcus ([8]; IBU-Na 10 mM): 1,000,000 UFC/mL | Colony count (UFC/mL ± 10) S. aureus ([8]; IBU-Na 12.5 mM + ClNa (1M)): 100 UFC/mL | Colony count (UFC/mL ± 10) S. aureus ([8]; IBU-Na 25 mM + ClNa (1M)): 10 UFC/mL | Colony count (UFC/mL ± 10) Staphylococcus ([8]; IBU-Na 25 mM): 30,000 UFC/mL | Colony count (UFC/mL ± 10) S. aureus ([8]; IBU-Na 50 mM + ClNa (1M)): 10 UFC/mL | Colony count (UFC/mL ± 10) ([8]; IBU-Na 50 mM): 550 UFC/mL | Colony count (UFC/mL ± 10) Staphylococcus ([8]; IBU-Na 50 mM): 600 UFC/mL | Colony count (UFC/mL ± 10) ([8]; IBU-Na 100 mM): 10 UFC/mL | Colony count (UFC/mL ± 10) Staphylococcus ([8]; IBU-Na 100 mM): 10 UFC/mL | Colony count (UFC/mL ± 10) ([9]; IBU-Na 50 mM): 180 UFC/mL | Colony count (UFC/mL ± 10) ([9]; IBU-Na 100 mM): 10 UFC/mL
